# Source: patent US10238667B2, “Vitamin D receptor/SMAD genomic circuit gates fibrotic response” (Salk Institute for Biological Studies, priority 2013, dated 2019)
# Assays:
# Type in all cases: cell-based, human
# LX-2 cells = assay: TGFβ1-induced fibrotic gene expression (RT-qPCR, siRNA) in LX-2 cells
# Method: FIGS. 4A-4C. VDR Signaling Suppresses TGFβ-induced Pro-Fibrotic Genes. (A) Heat map comparing 519 differentially expressed genes in freshly isolated rat HSCs (quiescent HSCs, Q-HSCs), activated HSCs (A-HSCs, 3 days culture on plastic) and cells cultures in the presence of 10 nM 1,25(OH)2D3 (A-HSCs+1,25(OH)2D3). Euclidean clustering of both rows and columns using log2 transformed microarray expression data, n=2 per treatment group. (B) Heat map of fold expression change of genes involved in fibrosis in primary rat HSCs treated with TGFβ1 (1 ng/ml) and TGFβ1 plus 1,25(OH)2D3 (100 nM) for 24 hours, n=2 per treatment group. […] Data represents the mean±SEM of at least three independent experiments performed in triplicate. Asterisks denote statistically significant differences (Student's unpaired t-test, *p<0.05, **p<0.01).
# LX-2 cells, a generous gift from Professor Scott Friedman, Mount Sinai School of Medicine, New York, N.Y., were cultured as described previously (Xu et al., 2005). […] For luciferase assays, DNA transfections were performed using Fugene 6 (Roche) following the manufacturer's instructions. […] Quantitative PCR was performed in technical triplicates using SYBR Green reagent (Biorad). The relative standard curve method was used for quantitation (Biorad). Expression levels were calculated by normalization to either Gapdh (mouse) or U36B4 (human) quantities. […]
# [1] = tested on: NCoR, SMRT, HDAC3, CoREST, LSD1, and G9a; assay: ChIP-qPCR of corepressor recruitment at COL1A1 and COL1A2 regulatory regions in LX-2 cells; conditions: calcipotriol 100 nM and TGFβ1 1 ng/ml
# Text: (§1) FIGS. 12A-12B. Coactivator/Corepressor Recruitment and Histone H3 Acetylation Status at Regulatory Regions of Fibrotic Genes Co-occupied by VDR and SMAD. […] The level of occupancy is expressed relative to input chromatin in LX-2 cells treated with corresponding conditions. Data represents the mean+/−SEM of at least three independent experiments performed in triplicate. Asterisks denote statistically significant differences (Student's t test, *p<0.05). […] The level of occupancy is expressed relative to input chromatin in LX-2 cells treated with corresponding conditions.
# (§2) Cells were then harvested for ChIP assay. The experimental procedure for ChIP was as previously described (Barish et al., 2010). Briefly, after fixation, nuclei from LX-2 cells were isolated, lysed and sheared with a Diagenode Bioruptor to yield DNA fragment sizes of 200-1000 base pairs followed by immunoprecipitation using antibodies listed below: normal rabbit IgG (Santa Cruz, sc-2027), VDR (Santa Cruz, sc-1008), SMAD3 (Abcam, ab28379) and histone H3 (Abcam, ab1791). For ChIP-Re-ChIP, after first ChIP, the immunoprecipitated DNA-protein complex was eluted from beads using 10 mM DTT, diluted 100-fold then re-immunoprecipitated with a second antibody, re-ChIP.
# SMAD3 = assay: ChIP-Seq signal intensity at VDR/SMAD3 co-occupied sites in LX-2 cells (SMAD3); conditions: TGFβ1 1 ng/ml ± calcipotriol 100 nM, 4 hours
# Text: FIGS. 10A-10G. Genomic Antagonism between VDR and SMAD. […] The three co-occupied sites are designated as 1, 2 and 3. (D) and (F) ChIP-qPCR at COL1A1 regulatory region #1 co-bound by VDR and SMAD3 in LX-2 cells treated as above. (E) and (G) ChIP-qPCR at COL1A1 regulatory region #1 of control (siCNTL), VDR-specific (siVDR), or SMAD3-specific (siSMAD3) siRNA transfected LX-2 cells treated as above. Occupancy is expressed relative to input chromatin. Data represents the mean±SEM of at least three independent experiments performed in triplicate. Asterisks denote statistically significant differences (Student's t-test, *p<0.05, **p<0.01).
# Cells were then harvested for ChIP assay. The experimental procedure for ChIP was as previously described (Barish et al., 2010). […]
# The procedure was as previously described (Barish et al., 2010). Briefly, short DNA reads were aligned against the human hg18 reference genome (NCBI Build 36.1) using the Illumina Pipeline Suite v1.7. Reads were aligned using the Bowtie aligner allowing up to 2 mismatches in the read. […] The threshold for the number of tags that determine a valid peak was selected for a false discovery rate of <0.0001, as empirically determined by repeating the peak finding procedure using randomized tag positions. […]
# [2] = tested on: CBP, p300 and acetylated histone H3; assay: ChIP-qPCR of CBP, p300 and acetylated histone H3 at COL1A1 regulatory region in LX-2 cells; conditions: co-treated with calcipotriol 100 nM and TGFβ1 1 ng/ml
# Text: as §1, §2
smiles,measurement,setting,value
"C=C1/C(=C\C=C2/CCC[C@]3(C)[C@@H]([C@H](C)/C=C/[C@@H](O)C4CC4)CC[C@@H]23)C[C@@H](O)C[C@@H]1O [calcipotriol, 1α,24-(OH)2-24-cyclopropyl-D3]",fibrotic gene expression,LX-2 cells,potently repressed
same,calcipotriol-mediated repression of TGFβ1 induced gene expression after loss of VDR,"LX-2 cells; siVDR RNAi, Cal 100 nM, TGFβ1 1 ng/ml, 16 hours",abolished
same,altered binding of corepressors to VDR/SMAD3 co-occupied regulatory regions,[1],not detected
same,TGFβ-induced recruitment of SMAD3 globally compromised,SMAD3,~1.5 fold
same,TGFβ1 induced recruitment of p300 and CBP and histone H3 hyperacetylation at COL1A1 regulatory region,[2],lost
